Where a SMILES comes first, the peptide text is derived from it. Bridges are numbered along the chain shown (N, C = ends). [ ]: non-standard residue; d: D form. The star is where a group is joined. hPhe(3,5-F2-4-CF3) = N[C@@H](CCc1cc(F)c(C(F)(F)F)c(F)c1)C(=O)O; hPhe(3-Cl-4-CF3) = N[C@@H](CCc1ccc(C(F)(F)F)c(Cl)c1)C(=O)O; NPrPhe(4-CF3) = CCCN[C@@H](Cc1ccc(C(F)(F)F)cc1)C(=O)O; NMeGly(cPent) = CN[C@H](C(=O)O)C1CCCC1; Ac4c(3,3-F2) = NC1(C(=O)O)CC(F)(F)C1; NMeGly(cBu) = CN[C@H](C(=O)O)C1CCC1; Hyp = O=C(O)[C@@H]1C[C@@H](O)CN1; NMeD = CN[C@@H](CC(=O)O)C(=O)O; NMeL = CN[C@@H](CC(C)C)C(=O)O; Azetidin(1-yl) = C1CN(*)C1; Morpholide = C1CN(*)CCO1; NMeA = CN[C@@H](C)C(=O)O; Ac5c = NC1(C(=O)O)CCCC1; Aze = O=C(O)[C@@H]1CCN1; Ac4c = NC1(C(=O)O)CCC1; Sar = CNCC(=O)O
Experiments:
[1] = molecular target: GDP-bound NRAS wild-type protein (Homo sapiens, UniProt P01111); test: Binding to NRAS by surface plasmon resonance (SPR), KD and KD ratio to KRAS
GDP-bound NRAS wild-type protein, sequence (P01111 whole entry): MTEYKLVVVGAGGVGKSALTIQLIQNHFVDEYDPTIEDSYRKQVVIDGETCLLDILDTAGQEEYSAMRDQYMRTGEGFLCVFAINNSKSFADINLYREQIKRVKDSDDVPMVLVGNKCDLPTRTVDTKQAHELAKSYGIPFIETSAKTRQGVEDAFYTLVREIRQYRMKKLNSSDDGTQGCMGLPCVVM
How it was run: (§1)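 GDP-bound biotin-Avi RAS captured at ~100–300 RU, 30°C, pH 7.4 HBS containing 10 µM GDP, 10 mM MgCl2, 1 mM DTT, 0.01% Tween 20 and 4% DMSO. KD by 1:1 fitting.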

HRAS wild-type protein = HRAS wild-type protein (Homo sapiens, UniProt P01112); test: Binding to HRAS by surface plasmon resonance (SPR), KD and KD ratio to KRAS
HRAS wild-type protein, sequence (P01112 whole entry): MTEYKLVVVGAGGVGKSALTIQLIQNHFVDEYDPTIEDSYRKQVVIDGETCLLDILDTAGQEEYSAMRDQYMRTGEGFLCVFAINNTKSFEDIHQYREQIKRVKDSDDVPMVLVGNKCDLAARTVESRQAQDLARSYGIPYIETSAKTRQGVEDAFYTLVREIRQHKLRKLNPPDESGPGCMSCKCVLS
How it was run: as §1

[2] = system: human lung cancer strain NCI-H441; type: cell-based
How it was run: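 Readout: […] after the ATP-based reagent. Compound: serial dilutions in dimethyl sulfoxide.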

[3] = ratio of KD for GDP-bound NRAS wild-type protein to KD for KRAS
[4] = ratio of KD for HRAS wild-type protein to KD for KRAS
[5] = ratio of the KD value with respect to GDP-bound NRAS wild-type protein to the KD value with respect to KRAS
[6] = ratio of the KD value with respect to HRAS wild-type protein to the KD value with respect to KRAS
[7] = ratio of KD value for GDP-bound NRAS wild-type protein to KD value for KRAS (SPR)
[8] = ratio of KD value for HRAS wild-type protein to KD value for KRAS (SPR)

| Structure (SMILES) | NRAS /KRAS [1, 3] | HRAS /KRAS (HRAS wild-type protein; [4]) | IC50 [2] | NRAS /KRAS [1, 5] | HRAS /KRAS (HRAS wild-type protein; [6]) | NRAS /KRAS [1, 7] | HRAS /KRAS (HRAS wild-type protein; [8]) |
| --- | --- | --- | --- | --- | --- | --- | --- |
| CCCN1C(=O)[C@@H]2CCN2C(=O)CN(C)C(=O)[C@H]([C@@H](C)CC)NC(=O)[C@H](CC(C)C)N(C)C(=O)C[C@@H](C(=O)N2CCOCC2)NC(=O)[C@H](C2CCCC2)N(C)C(=O)C2(CCC2)NC(=O)[C@@H]2C[C@@H](OCC)CN2C(=O)[C@H](CCc2ccc(C(F)(F)F)c(Cl)c2)NC(=O)CN(C)C(=O)[C@@H]1Cc1ccc(C(F)(F)F)cc1 [PP0354] ([NMeL]I[Sar][Aze][NPrPhe(4-CF3)][Sar][hPhe(3-Cl-4-CF3)][Hyp](Et)[Ac4c][NMeGly(cPent)]D-Morpholide; lactam N-11) | C (A compound having a KD ratio of 0.1 or more and less than 3 is denoted as C) | B (a compound having 3 or more and less than 10 is denoted as B) | 24.7 nM | – | – | – | – |
| CC[C@H](C)[C@@H]1NC(=O)[C@H](CC(C)C)N(C)C(=O)C[C@@H](C(=O)N(C)CC)N(C)C(=O)[C@H](C2CCCC2)N(C)C(=O)C2(CCC2)NC(=O)[C@@H]2C[C@@H](C)CN2C(=O)[C@H](CCc2ccc(C(F)(F)F)c(OC)c2)NC(=O)CN(C)C(=O)[C@H](Cc2ccc(C)cc2)N2CC/C=C\C[C@@H](C2=O)N(C)C(=O)CN(C)C1=O [PP1907] | – | – | 23.6 nM | AA (a compound having 20 or more is denoted as AA) | A (a compound having 10 or more and less than 20 is denoted as A) | – | – |
| CCO[C@@H]1C[C@H]2C(=O)NC3(CC(C)(C)C3)C(=O)N(C)[C@@H](C(CC)CC)C(=O)N(C)[C@H](C(=O)N(C)C)CC(=O)N(C)[C@@H](C)C(=O)N[C@@H]([C@@H](C)CC)C(=O)N(C)CC(=O)N(C)[C@H]3C/C=C\CCN(C3=O)[C@@H](Cc3ccc(C)cc3)C(=O)N(C)CC(=O)N[C@@H](CCc3ccc(Cl)c(Cl)c3)C(=O)N2C1 [PP2186] | – | – | 33.7 nM | AA (a compound having 20 or more is denoted as AA) | A (a compound having 10 or more and less than 20 is denoted as A) | – | – |
| CCCN1C(=O)[C@@H]2CCN2C(=O)[C@H](C)N(C)C(=O)[C@H]([C@@H](C)CC)NC(=O)[C@H](CC(C)C)N(C)C(=O)C[C@@H](C(=O)N2CCC2)N(C)C(=O)[C@H](C2CCCC2)N(C)C(=O)C2(CCCC2)NC(=O)[C@@H]2CCCN2C(=O)[C@H](CCc2ccc(C(F)(F)F)c(Cl)c2)NC(=O)CN(C)C(=O)[C@@H]1Cc1ccc(C(F)(F)F)cc1 [PP0181] ([NMeL]I[NMeA][Aze][NPrPhe(4-CF3)][Sar][hPhe(3-Cl-4-CF3)]P[Ac5c][NMeGly(cPent)][NMeD]-{Azetidin(1-yl)}; lactam N-11) | C (A compound having a KD ratio of 0.1 or more and less than 3 is denoted as C) | B (a compound having 3 or more and less than 10 is denoted as B) | 1.5 nM | – | – | – | – |
| CC[C@H](C)[C@@H]1NC(=O)[C@H](CC(C)C)N(C)C(=O)C[C@@H](C(=O)N2CCOCC2)N(C)C(=O)[C@H](C2CCCC2)N(C)C(=O)C2(CCC2)NC(=O)[C@@H]2C[C@@H](C(F)(F)F)CN2C(=O)[C@H](CCc2cc(F)c(C(F)(F)F)c(F)c2)NC(=O)CN(C)C(=O)[C@H](Cc2ccc(C(F)(F)F)cc2)N2CCCCC[C@@H](C2=O)N(C)C(=O)CN(C)C1=O [PP0818] | B (a compound having 3 or more and less than 10 is denoted as B) | B (a compound having 3 or more and less than 10 is denoted as B) | 43.7 nM | – | – | – | – |
| CCCN1C(=O)CN(C)C(=O)CN(C)C(=O)[C@H]([C@@H](C)CC)NC(=O)[C@H](C2CCC2)N(C)C(=O)C[C@@H](C(=O)N2CCOCC2)N(C)C(=O)[C@H](C2CCCC2)N(C)C(=O)C2(CCCC2)NC(=O)[C@@H]2CCCN2C(=O)[C@H](CCc2ccc(C(F)(F)F)c(Cl)c2)NC(=O)CN(C)C(=O)[C@@H]1Cc1ccc(C(F)(F)F)cc1 [PP0188] ([NMeGly(cBu)]I[Sar][Sar][NPrPhe(4-CF3)][Sar][hPhe(3-Cl-4-CF3)]P[Ac5c][NMeGly(cPent)][NMeD]-Morpholide; lactam N-11) | B (a compound having 3 or more and less than 10 is denoted as B) | C (A compound having a KD ratio of 0.1 or more and less than 3 is denoted as C) | 3.9 nM | – | – | – | – |
| CCCN1C(=O)CN(C)C(=O)CN(C)C(=O)[C@H]([C@@H](C)CC)NC(=O)[C@H](CC(C)C)N(C)C(=O)C[C@@H](C(=O)N2CCOCC2)N(C)C(=O)[C@H](C2CCCC2)N(C)C(=O)C2(CCC2)NC(=O)[C@@H]2CCCN2C(=O)[C@H](CCc2ccc(C(F)(F)F)c(Cl)c2)NC(=O)CN(C)C(=O)[C@@H]1Cc1ccc(C(F)(F)F)cc1 [PP0197] ([NMeL]I[Sar][Sar][NPrPhe(4-CF3)][Sar][hPhe(3-Cl-4-CF3)]P[Ac4c][NMeGly(cPent)][NMeD]-Morpholide; lactam N-11) | B (a compound having 3 or more and less than 10 is denoted as B) | C (A compound having a KD ratio of 0.1 or more and less than 3 is denoted as C) | 3.6 nM | – | – | – | – |
| CCCC[C@H]1C(=O)N[C@@H]([C@@H](C)CC)C(=O)N(C)CC(=O)N(C)[C@H]2C/C=C\CCN(C2=O)[C@@H](Cc2ccc(C(F)(F)F)cc2)C(=O)N(C)CC(=O)N[C@@H](CCc2cc(F)c(C(F)(F)F)c(F)c2)C(=O)N2C[C@@H](C)C[C@H]2C(=O)NC2(CC(C)(C)C2)C(=O)N(C)[C@@H](C2CCCC2)C(=O)N(C)[C@H](C(=O)N(C)C)CC(=O)N1C [PP1661] | – | – | 5.7 nM | – | – | A (a compound having 10 or more and less than 20 is denoted as A) | A (a compound having 10 or more and less than 20 is denoted as A) |
| CCCN1C(=O)CN(C)C(=O)CN(C)C(=O)[C@H]([C@@H](C)CC)NC(=O)[C@H](CC(C)C)N(C)C(=O)C[C@@H](C(=O)N(C)C)NC(=O)[C@H](C2CCCC2)N(C)C(=O)C2(CCC2)NC(=O)[C@@H]2CCCN2C(=O)[C@H](CCc2ccc(C(F)(F)F)c(Cl)c2)NC(=O)CN(C)C(=O)[C@@H]1Cc1ccc(C(F)(F)F)cc1 [PP0356] ([NMeL]I[Sar][Sar][NPrPhe(4-CF3)][Sar][hPhe(3-Cl-4-CF3)]P[Ac4c][NMeGly(cPent)]D-NMe2; lactam N-11) | B (a compound having 3 or more and less than 10 is denoted as B) | B (a compound having 3 or more and less than 10 is denoted as B) | 99.4 nM | – | – | – | – |
| CCO[C@@H]1C[C@H]2C(=O)NC3(CCC3)C(=O)N(C)[C@@H](C3CCCC3)C(=O)N(C)[C@H](C(=O)N(C)C)CC(=O)N(C)[C@@H](CC)C(=O)N[C@@H]([C@@H](C)CC)C(=O)N3CC[C@H]3C(=O)N(C)[C@H]3C/C=C\CCN(C3=O)[C@@H](Cc3ccc(C(F)(F)F)cc3)C(=O)N(C)CC(=O)N[C@@H](CCc3cc(F)c(C(F)(F)F)c(F)c3)C(=O)N2C1 [PP0984] | A (a compound having 10 or more and less than 20 is denoted as A) | A (a compound having 10 or more and less than 20 is denoted as A) | 64.6 nM | – | – | – | – |
| CCO[C@@H]1C[C@H]2C(=O)NC3(CC(C)(C)C3)C(=O)N(C)[C@@H](C3CCCC3)C(=O)N(C)[C@H](C(=O)N(C)CC)CC(=O)N(C)[C@@H](CC)C(=O)N[C@@H]([C@@H](C)CC)C(=O)N(C)CC(=O)N(C)[C@H]3C/C=C\CCN(C3=O)[C@@H](Cc3ccc(C(F)(F)F)cc3)C(=O)N(C)CC(=O)N[C@@H](CCc3ccc(C(F)(F)F)c(Cl)c3)C(=O)N2C1 [PP2823] | A (a compound having 10 or more and less than 20 is denoted as A) | A (a compound having 10 or more and less than 20 is denoted as A) | 7.6 nM | – | – | – | – |
| CCC[C@H]1C(=O)N[C@@H]([C@@H](C)CC)C(=O)N(C)CC(=O)N(C)[C@H]2C/C=C\CCN(C2=O)[C@@H](Cc2ccc(C(F)(F)F)cc2)C(=O)N(C)CC(=O)N[C@@H](CCc2cc(F)c(C(F)(F)F)c(F)c2)C(=O)N2C[C@H](OCC)C[C@H]2C(=O)NC2(CC(F)(F)C2)C(=O)N(C)[C@@H](C2CCCC2)C(=O)N(C)[C@H](C(=O)N(C)CCC)CC(=O)N1C [PP1736] | – | – | 3.6 nM | – | – | A (a compound having 10 or more and less than 20 is denoted as A) | A (a compound having 10 or more and less than 20 is denoted as A) |
| CCCN1C(=O)CN(C)C(=O)CN(C)C(=O)[C@H]([C@@H](C)CC)NC(=O)[C@H](CC(C)C)N(C)C(=O)C[C@@H](C(=O)N2CCOCC2)N(C)C(=O)[C@H](C2CCCC2)N(C)C(=O)C2(CC(F)(F)C2)NC(=O)[C@@H]2CCCN2C(=O)[C@H](CCc2cc(F)c(C(F)(F)F)c(F)c2)NC(=O)CN(C)C(=O)[C@@H]1Cc1ccc(C(F)(F)F)cc1 [PP0766] ([NMeL]I[Sar][Sar][NPrPhe(4-CF3)][Sar][hPhe(3,5-F2-4-CF3)]P[Ac4c(3,3-F2)][NMeGly(cPent)][NMeD]-Morpholide; lactam N-11) | B (a compound having 3 or more and less than 10 is denoted as B) | B (a compound having 3 or more and less than 10 is denoted as B) | 8.7 nM | – | – | – | – |

— patent EP4603105A1, “PHARMACEUTICAL COMPOSITION CONTAINING CYCLIC COMPOUND HAVING SELECTIVE KRAS INHIBITORY EFFECT AGAINST HRAS AND NRAS” (CHUGAI SEIYAKU KABUSHIKI KAISHA, priority 2022, dated 2024)
